The values that follow come from ChEMBL document CHEMBL5034017, “Structural Insights into Schistosoma mansoni Carbonic Anhydrase (SmCA) Inhibition by Selenoureido-Substituted Benzenesulfonamides” (J Med Chem, 2021).

pKi: −log10 of the molar value. Calls of active or inactive are those of the source. The rule behind the calls is not given here.

Series [1] in a line: Selectivity ratio of Ki for inhibition of recombinant human carbonic anhydrase 2 to Ki for inhibition of recombinant Schistosoma manson carbonic anhydrase. Type of series: toxicity.
Series [2] is described as follows: Inhibition of recombinant Schistosoma manson carbonic anhydrase pre-incubated with enzyme for 15 mins by phenol red dye based stopped flow CO2 hydration assay. Also on record: species or system Schistosoma mansoni.
The test system of series [3] is Schistosoma mansoni. The series can be described thus: Antischistosomal activity against Schistosoma mansoni Puerto-Rican infected in Swiss Webster mouse assessed as worm burden reduction at 50 mg/kg, ip administered at 42, 44 and 46 hrs post infection and measured after 2 weeks. The format is functional, organism-based.
The subject of series [4] is Schistosoma mansoni. The series is described as follows: Antischistosomal activity against Schistosoma mansoni Puerto-Rican infected in Swiss Webster mouse assessed as worm burden reduction at 100 mg/kg, ip administered at 42, 44 and 46 hrs post infection and measured after 2 weeks. Type of series: functional, organism-based.

The term pKi denotes the negative decadic logarithm of the Ki, by convention in mol/L. Turning to `COc1ccccc1NC(=[Se])NCCc1ccc(S(N)(=O)=O)cc1`, the “Ratio Ki” value in series [1] amounted to 0.7. In addition, the pKi in series [2] was 8.21.

Take `NS(=O)(=O)c1cccc(NC(=[Se])Nc2ccccc2)c1`: the “Ratio Ki” value in series [1] was 0.8. The pKi in series [2] was 6.37.

Turning to `NS(=O)(=O)c1ccc(NC(=S)Nc2ccc(F)cc2)cc1`, the “Ratio Ki” value in series [1] is recorded as 0.6. In addition, the pKi in series [2] was 7.63.

On to `NS(=O)(=O)c1ccc(CCNC(=[Se])Nc2ccc(I)cc2)cc1`, for which the “Ratio Ki” value in series [1] was determined as 12.2. For the same compound, the pKi in series [2] was 8.33.

As for `NS(=O)(=O)c1ccc(CCNC(=[Se])Nc2ccc(Br)cc2)cc1`, the “Ratio Ki” value in series [1] amounted to 1.05. Moreover, the pKi in series [2] was 8.77.

For `NS(=O)(=O)c1ccc(NC(=[Se])Nc2ccccc2Cl)cc1`, the “Ratio Ki” value in series [1] amounted to 0.6. Besides, the pKi in series [2] is 8.17.

Consider `NS(=O)(=O)c1ccc(NC(=[Se])Nc2cccc(C(F)(F)F)c2)cc1`, for which the “Ratio Ki” value in series [1] amounted to 4.1. The pKi in series [2] was 8.82.

On to `NS(=O)(=O)c1ccc(NC(=O)Nc2ccc(F)cc2)cc1` [SLC-0111], for which, in series [1], the “Ratio Ki” value is 1.7. Further, in the series with Schistosoma mansoni [3], the result was inactive. For the same compound, in series [2], the pKi is 7.27.

Consider `NS(=O)(=O)c1ccc(CCNC(=O)Nc2ccc(I)cc2)cc1`, for which the “Ratio Ki” value in series [1] is 0.6. Further, the pKi in series [2] was 7.88.

Take `NS(=O)(=O)c1ccc(CCNC(=[Se])Nc2ccc3ccccc3c2)cc1`: the “Ratio Ki” value in series [1] is 1.1. In addition, the pKi in series [2] is 7.07.

For the compound `NS(=O)(=O)c1ccc(CCNC(=S)Nc2ccc(I)cc2)cc1`, the “Ratio Ki” value in series [1] was 0.2. Besides, the pKi in series [2] was 7.42.

As for `NS(=O)(=O)c1ccc(NC(=[Se])Nc2ccccc2F)cc1`, the “Ratio Ki” value in series [1] came out at 1.1. For the same compound, in series [2], the pKi is 8.24.

Turning to `NS(=O)(=O)c1ccc(NC(=[Se])Nc2ccc(F)cc2)cc1`, the “Ratio Ki” value in series [1] worked out at 0.9. Besides, the pKi in series [2] was 7.11.

As to `NS(=O)(=O)c1ccc(NC(=[Se])Nc2ccccc2)cc1`, in series [1], the “Ratio Ki” value was determined as 0.6. In series [2], the pKi was 7.08. In addition, the outcome in the series on Schistosoma mansoni [4] was inactive.

As for `NS(=O)(=O)c1ccc(CCNC(=[Se])Nc2ccccc2Cl)cc1`, the “Ratio Ki” value in series [1] is given as 0.6. The pKi in series [2] was 8.24. For the same compound, in the series on Schistosoma mansoni [4], the result was inactive.

As for `NS(=O)(=O)c1ccc(CCNC(=[Se])Nc2ccccc2)cc1`, the “Ratio Ki” value in series [1] stood at 1.7. The pKi in series [2] was 8.49.

Turning to `NS(=O)(=O)c1ccc(CCNC(=[Se])Nc2ccccc2F)cc1`, the “Ratio Ki” value in series [1] is recorded as 1. In addition, the pKi in series [2] was 8.10.

Take `NS(=O)(=O)c1cccc(NC(=[Se])Nc2ccc(F)cc2)c1`: the “Ratio Ki” value in series [1] came out at 4.2. For the same compound, in series [2], the pKi is 7.04.

Consider `NS(=O)(=O)c1ccc(CCNC(=[Se])Nc2cccc(C(F)(F)F)c2)cc1`, for which the “Ratio Ki” value in series [1] was 0.97. Also, the pKi in series [2] is 8.35.

With `CC(=O)Nc1nnc(S(N)(=O)=O)s1` [ACETAZOLAMIDE], the “Ratio Ki” value in series [1] turned out to be 0.3. The pKi in series [2] is 7.37.
